In the assay the target is T1, D-3-phosphoglycerate dehydrogenase (Homo sapiens, UniProt O43175).
T1 sequence (O43175 whole entry): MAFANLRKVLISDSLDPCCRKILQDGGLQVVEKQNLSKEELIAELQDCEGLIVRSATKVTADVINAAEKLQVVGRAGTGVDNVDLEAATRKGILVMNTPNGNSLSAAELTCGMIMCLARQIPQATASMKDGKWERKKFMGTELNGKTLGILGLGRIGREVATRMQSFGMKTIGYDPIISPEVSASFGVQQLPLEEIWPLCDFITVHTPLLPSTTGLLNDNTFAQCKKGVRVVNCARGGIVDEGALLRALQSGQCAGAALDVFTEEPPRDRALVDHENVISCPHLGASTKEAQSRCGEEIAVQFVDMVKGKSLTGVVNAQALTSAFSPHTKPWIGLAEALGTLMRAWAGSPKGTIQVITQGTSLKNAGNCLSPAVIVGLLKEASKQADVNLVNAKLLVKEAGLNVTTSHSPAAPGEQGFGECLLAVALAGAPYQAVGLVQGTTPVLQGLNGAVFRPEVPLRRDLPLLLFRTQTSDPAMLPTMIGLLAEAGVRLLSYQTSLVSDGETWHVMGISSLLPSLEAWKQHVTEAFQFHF
The assay can be described thus: Inhibition of N-terminal HIS-tagged and TEV cleavage site containing full length PHGDH (unknown origin) expressed in Escherichia coli assessed as reduction in conversion of 3-Phosphoglycerate and NAD to 3-Phosphohydroxypyruvate and NADH using 250 uM NAD and 500 uM 3-PG incubated for 240 mins by fluorescence based assay.

As for `Cc1cc(Cl)c2cc(C(=O)N[C@H](C)c3ccc(S(=O)(=O)CC(=O)OCCNC(=O)OC(C)(C)C)cc3)n(C)c2c1`, the half-maximal inhibitory concentration (IC50) (commonly the concentration needed to halve the response being measured) is 701 nM. With `Cc1cc(Cl)c2cc(C(=O)N[C@H](CO)c3ccc(S(=O)(=O)CC(=O)OCC4(F)COC4)cc3)n(C)c2c1`, the IC50 was 27 nM. `Cc1cc(Cl)c2cc(C(=O)N[C@H](C)c3ccc(S(=O)(=O)C(C)(C)C(=O)OC(C)(C)C)cc3)n(C)c2c1`: the IC50 worked out at 5050 nM. Turning to `COC(=O)CS(=O)(=O)c1ccc([C@@H](C)NC(=O)c2cc3c(Cl)cc(C)cc3n2C)nc1`, the half-maximal inhibitory concentration (IC50) amounted to 1130 nM. As for `Cc1cc2c(cc(C(=O)N[C@@H](C)c3ccc(S(=O)(=O)CC(=O)O)cc3)n2C)c(Cl)c1Cl`, the IC50 came out at 155 nM. For `COCCOC(=O)CS(=O)(=O)c1ccc([C@@H](CO)NC(=O)c2cc3c(Cl)cc(C)cc3n2C)cc1`, the IC50 came to 62 nM.

Values taken from ChEMBL document CHEMBL4476888, “Tosylacetate based compounds and derivatives thereof as phgdh inhibitors” (2018).
